Counter-ions that a name gives are not always drawn.

T1 sequence (P37288 whole entry): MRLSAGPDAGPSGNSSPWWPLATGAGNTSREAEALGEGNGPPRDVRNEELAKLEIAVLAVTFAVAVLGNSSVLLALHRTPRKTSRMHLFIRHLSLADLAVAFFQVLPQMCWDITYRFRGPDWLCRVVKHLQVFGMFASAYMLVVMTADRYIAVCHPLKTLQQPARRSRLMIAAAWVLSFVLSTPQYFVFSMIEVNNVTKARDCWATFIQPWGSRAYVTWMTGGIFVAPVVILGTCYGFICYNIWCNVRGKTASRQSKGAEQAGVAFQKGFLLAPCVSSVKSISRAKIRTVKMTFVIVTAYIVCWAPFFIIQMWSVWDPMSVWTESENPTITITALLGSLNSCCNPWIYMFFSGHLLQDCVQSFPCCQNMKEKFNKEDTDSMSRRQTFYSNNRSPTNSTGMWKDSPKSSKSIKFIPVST

One assay addresses T1, human V1a receptor (Homo sapiens, UniProt P37288).
T1 construct: expressed in transfected cells; host or cells: HEK293 cells, transiently transfected; cell membranes
Put plainly: human V1a receptor binding (3H-Vasopressin SPA, HEK293 membranes).
Settings: not given
The procedure:
The human V1a receptor was cloned by RT-PCR from total human liver RNA. The coding sequence was subcloned in an expression vector after sequencing to confirm the identity of the amplified sequence. […] Cell membranes were prepared from HEK293 cells transiently transfected with the expression vector and grown in 20 liter fermenters with the following protocol.
50 g of cells are resuspended in 30 ml freshly prepared ice cold Lysis buffer (50 mM HEPES, 1 mM EDTA, 10 mM magnesium dichloride adjusted to pH=7.4+complete cocktail of protease inhibitor (Roche Diagnostics)). Homogenized with Polytron for 1 min and sonicated on ice for 2×2 minutes at 80% intensity (Vibracell sonicator). The preparation is centrifuged 20 min at 500 g at 4° C., the pellet is discarded and the supernatant centrifuged 1 hour at 43′000 g at 4° C. (19'000 rpm). The pellet is resuspended in 12.5 ml Lysis buffer+12.5 ml sucrose 20% and homogenized using a Polytron for 1-2 min. The protein concentration is determined by the Bradford method and aliquots are stored at −80° C. until use. For binding studies 60 mg Yttrium silicate SPA beads (Amersham®) are mixed with an aliquot of membrane in binding buffer (50 mM Tris, 120 mM sodium chloride, 5 mM potassium chloride, 2 mM calcium dichloride, 10 mM magnesium dichloride) for 15 minutes with mixing. 50 μl of bead/membrane mixture is then added to each well of a 96 well plate, followed by 50 μl of 4 nM 3H-Vasopressin (American Radiolabeled Chemicals). For total binding measurement 100 μl of binding buffer are added to the respective wells, for non-specific binding 100 μl of 8.4 mM cold vasopressin and for compound testing 100 μl of a serial dilution of each compound in 2% dimethyl sulfoxide. The plate is incubated 1 h at room temperature, centrifuged 1 min at 1000 g and counted on a Packard Top-Count. Non-specific binding counts are subtracted from each well and data is normalized to the maximum specific binding set at 100%. To calculate an IC50 the curve is fitted using a non-linear regression model (XLfit) and the Ki is calculated using the Cheng-Prussoff equation.
`Clc1ccc2c(c1)CNCc1nnc([C@H]3CC[C@@H](c4nsc5ccccc54)CC3)n1-2` [Example 34, cis-1-(4-Benzo[d]isothiazol-3-yl-cyclohexyl)-8-chloro-5,6-dihydro-4H-2,3,5,10b-tetraaza-benzo[e]azulene]: the Ki was 25.7 nM. In the case of `CN1Cc2cc(Cl)ccc2-n2c(nnc2[C@H]2CC[C@@H](c3noc4ccccc43)CC2)C1` [Example 4, cis-1-(4-Benzo[d]isoxazol-3-yl-cyclohexyl)-8-chloro-5-methyl-5,6-dihydro-4H-2,3,5,10b-tetraaza-benzo[e]azulene], the Ki was 7.59 nM. On the same count and under the same terms, the figure for `Clc1ccc2c(c1)CN(C1CCC1)Cc1nnc([C@H]3CC[C@H](c4nsc5ccccc54)CC3)n1-2` [Example 22, trans-1-(4-Benzo[d]isothiazol-3-yl-cyclohexyl)-8-chloro-5-cyclobutyl-5,6-dihydro-4H-2,3,5,10b-tetraaza-benzo[e]azulene] is 0.302 nM; for `Clc1ccc2c(c1)CNCc1nnc([C@H]3CC[C@H](c4nsc5ccccc54)CC3)n1-2` [Example 20, trans-1-(4-Benzo[d]isothiazol-3-yl-cyclohexyl)-8-chloro-5,6-dihydro-4H-2,3,5,10b-tetraaza-benzo[e]azulene hydrochloride] it is 1.51 nM; for `CC(=O)N1Cc2cc(Cl)ccc2-n2c(nnc2[C@H]2CC[C@H](c3nsc4ccccc43)CC2)C1` [Example 24, trans-1-[1-(4-Benzo[d]isothiazol-3-yl-cyclohexyl)-8-chloro-4H,6H-2,3,5,10b-tetraaza-benzo[e]azulen-5-yl]-ethanone] it is 0.398 nM.

Still in this assay, the particulars now being: 3H-Vasopressin displacement, membranes of HEK293 cells transiently transfected with human V1a receptor; Ki by Cheng-Prusoff; read-out: pKi (hV1a) (converted).
As for `CN1Cc2cc(Cl)ccc2-n2c(nnc2[C@H]2CC[C@H](c3noc4ncccc43)CC2)C1` [Example 18, trans-8-Chloro-1-(4-isoxazolo[5,4-b]pyridin-3-yl-cyclohexyl)-5-methyl-5,6-dihydro-4H-2,3,5,10b-tetraaza-benzo[e]azulene], the Ki was 0.891 nM. As to `CS(=O)(=O)N1Cc2cc(Cl)ccc2-n2c(nnc2[C@H]2CC[C@H](c3nsc4ccccc43)CC2)C1` [Example 26, trans-1-(4-Benzo[d]isothiazol-3-yl-cyclohexyl)-8-chloro-5-methanesulfonyl-5,6-dihydro-4H-2,3,5,10b-tetraaza-benzo[e]azulene], the Ki is 0.302 nM. Consider `Clc1ccc2c(c1)CNCc1nnc([C@H]3CC[C@H](c4noc5cccnc54)CC3)n1-2` [Example 14, trans-8-Chloro-1-(4-isoxazolo[4,5-b]pyridin-3-yl-cyclohexyl)-5,6-dihydro-4H-2,3,5,10b-tetraaza-benzo[e]azulene hydrochloride], for which the Ki was 2.19 nM.

With `CC(C)(C)OC(=O)N1Cc2cc(Cl)ccc2-n2c(nnc2[C@H]2CC[C@H](c3noc4ccc(F)cc43)CC2)C1` [Example 10, trans-8-Chloro-1-[4-(5-fluoro-benzo[d]isoxazol-3-yl)-cyclohexyl]-4H,6H-2,3,5,10b-tetraaza-benzo[e]azulene-5-carboxylic acid tert-butyl ester], the Ki is 3.24 nM. Same read-out and setting: the figure for `CC(C)(C)OC(=O)N1Cc2cc(Cl)ccc2-n2c(nnc2[C@H]2CC[C@H](c3noc4ccccc43)CC2)C1` [Example 2, trans-1-(4-Benzo[d]isoxazol-3-yl-cyclohexyl)-8-chloro-4H,6H-2,3,5,10b-tetraaza-benzo[e]azulene-5-carboxylic acid tert-butyl ester] is 4.79 nM.

Regarding `CC(C)(C)OC(=O)N1Cc2cc(Cl)ccc2-n2c(nnc2[C@H]2CC[C@H](c3nsc4ccccc43)CC2)C1` [Example 19, trans-1-(4-Benzo[d]isothiazol-3-yl-cyclohexyl)-8-chloro-4H,6H-2,3,5,10b-tetraaza-benzo[e]azulene-5-carboxylic acid tert-butyl ester], the Ki is 7.59 nM. As to `CN1Cc2cc(Cl)ccc2-n2c(nnc2[C@H]2CC[C@H](c3nsc4cccnc43)CC2)C1` [Example 29, trans-8-Chloro-1-(4-isothiazolo[4,5-b]pyridin-3-yl-cyclohexyl)-5-methyl-5,6-dihydro-4H-2,3,5,10b-tetraaza-benzo[e]azulene], the Ki is 0.794 nM.

On to `CC(C)(C)OC(=O)N1Cc2cc(Cl)ccc2-n2c(nnc2[C@H]2CC[C@H](c3noc4cccnc43)CC2)C1` [Example 13, trans-8-Chloro-1-(4-isoxazolo[4,5-b]pyridin-3-yl-cyclohexyl)-4H,6H-2,3,5,10b-tetraaza-benzo[e]azulene-5-carboxylic acid tert-butyl ester], for which the Ki was 2.69 nM. Same read-out and setting: next, `Clc1ccc2c(c1)CNCc1nnc([C@H]3CC[C@H](c4nsc5cccnc54)CC3)n1-2` [Example 28, trans-8-Chloro-1-(4-isothiazolo[4,5-b]pyridin-3-yl-cyclohexyl)-5,6-dihydro-4H-2,3,5,10b-tetraaza-benzo[e]azulene]: 1.1 nM; `Clc1ccc2c(c1)CNCc1nnc([C@H]3CC[C@H](c4nsc5cnccc54)CC3)n1-2` [Example 31, trans-8-Chloro-1-(4-isothiazolo[5,4-c]pyridin-3-yl-cyclohexyl)-5,6-dihydro-4H-2,3,5,10b-tetraaza-benzo[e]azulene]: 2.57 nM; `Clc1ccc2c(c1)CNCc1nnc([C@H]3CC[C@H](c4noc5ncccc54)CC3)n1-2` [Example 17, trans-8-Chloro-1-(4-isoxazolo[5,4-b]pyridin-3-yl-cyclohexyl)-5,6-dihydro-4H-2,3,5,10b-tetraaza-benzo[e]azulene hydrochloride]: 5.25 nM.

Regarding `CC(C)(C)OC(=O)N1Cc2cc(Cl)ccc2-n2c(nnc2[C@H]2CC[C@@H](c3noc4ccccc43)CC2)C1` [Example 1, cis-1-(4-Benzo[d]isoxazol-3-yl-cyclohexyl)-8-chloro-4H,6H-2,3,5,10b-tetraaza-benzo[e]azulene-5-carboxylic acid tert-butyl ester], the Ki was 8.91 nM. Still for that read-out and setting: the figure for `CC(C)(C)OC(=O)N1Cc2cc(Cl)ccc2-n2c(nnc2[C@H]2CC[C@@H](c3nsc4ccccc43)CC2)C1` [Example 33, cis-1-(4-Benzo[d]isothiazol-3-yl-cyclohexyl)-8-chloro-4H,6H-2,3,5,10b-tetraaza-benzo[e]azulene-5-carboxylic acid tert-butyl ester] is 1.1 nM; for `CN1Cc2cc(Cl)ccc2-n2c(nnc2[C@H]2CC[C@H](c3noc4cccnc43)CC2)C1` [Example 15, trans-8-Chloro-1-(4-isoxazolo[4,5-b]pyridin-3-yl-cyclohexyl)-5-methyl-5,6-dihydro-4H-2,3,5,10b-tetraaza-benzo[e]azulene] it is 0.708 nM; for `Fc1ccc2onc([C@H]3CC[C@H](c4nnc5n4-c4ccc(Cl)cc4CNC5)CC3)c2c1` [Example 11, trans-8-Chloro-1-[4-(5-fluoro-benzo[d]isoxazol-3-yl)-cyclohexyl]-5,6-dihydro-4H-2,3,5,10b-tetraaza-benzo[e]azulene hydrochloride] it is 2.09 nM. In the case of `Clc1ccc2c(c1)CNCc1nnc([C@H]3CC[C@@H](c4noc5ccccc54)CC3)n1-2` [Example 3, cis-1-(4-Benzo[d]isoxazol-3-yl-cyclohexyl)-8-chloro-5,6-dihydro-4H-2,3,5,10b-tetraaza-benzo[e]azulene hydrochloride], the Ki is 11.2 nM. On the same count and under the same terms, the figure for `CC(C)(C)OC(=O)N1Cc2cc(Cl)ccc2-n2c(nnc2[C@H]2CC[C@H](c3nsc4cccnc43)CC2)C1` [Example 27, trans-8-Chloro-1-(4-isothiazolo[4,5-b]pyridin-3-yl-cyclohexyl)-4H,6H-2,3,5,10b-tetraaza-benzo[e]azulene-5-carboxylic acid tert-butyl ester] is 4.27 nM. The same measure, in the same setting: next, `CN1Cc2cc(Cl)ccc2-n2c(nnc2[C@H]2CC[C@H](c3noc4cc(F)ccc43)CC2)C1` [Example 9, trans-8-Chloro-1-[4-(6-fluoro-benzo[d]isoxazol-3-yl)-cyclohexyl]-5-methyl-5,6-dihydro-4H-2,3,5,10b-tetraaza-benzo[e]azulene]: 1.2 nM; `CN1Cc2cc(Cl)ccc2-n2c(nnc2[C@H]2CC[C@@H](c3nsc4ccccc43)CC2)C1` [Example 35, cis-1-(4-Benzo[d]isothiazol-3-yl-cyclohexyl)-8-chloro-5-methyl-5,6-dihydro-4H-2,3,5,10b-tetraaza-benzo[e]azulene]: 4.27 nM; `Fc1ccc2c(c1)onc2[C@H]1CC[C@H](c2nnc3n2-c2ccc(Cl)cc2CNC3)CC1` [Example 8, trans-8-Chloro-1-[4-(6-fluoro-benzo[d]isoxazol-3-yl)-cyclohexyl]-5,6-dihydro-4H-2,3,5,10b-tetraaza-benzo[e]azulene hydrochloride]: 1.51 nM.

Values taken from patent publication US8481528B2 (Hoffmann-La Roche Inc., priority 2010, dated 2013).
